From patent EP0877020A1, “ACRIDONE DERIVATIVE” (Eisai Co., Ltd., priority 1995, dated 1997) come the findings set out here.

For one test, the system named is RBL-2H3 cells. Put plainly: Repression of liberation of mediators (serotonin, histamine, arachidonic acid) from RBL-2H3 cells. It is filed as cell-based, rat. An excerpt: [Study on activity to repress the liberation of various mediators from rat basophilic leukemic cell strain (RBL-2H3) and activity to repress thyrosine kinase]
The cells of RBL-2H3, one species of rat cell line, carry out not only the liberation of histamine and serotonin but also the formation and liberation of prostaglandins, TNFα, etc., i.e. inflammatory mediators, owing to the specific antigen of the IgE antibody bound to the IgE receptor. In the present test system, therefore, the cells were marked with serotonin and arachidonic acid labeled in advance with [^3H] and cultured in the presence of a compound under test and in the absence thereof and the amounts of the mediators liberated in the culture medium were measured. Thus, the given compounds were tested for activity to repress the liberation of various mediators. The TNFα was determined by means of bioassay.

The subject of the next test is TNFα. As to the kind of experiment: Repression of formation and liberation of TNFα (bioassay). The test is classed as cell-based, rat. Conditions: at the same concentration (12 µM).
The test system of a further test is phospholipase C. Put plainly: Repression of activation of phospholipase C, intracellular substrate of the thyrosine kinase. It is filed as cell-based. Conditions: at the same concentration (12 µM).
Another test deals with Jurkat cells (T-cells). Put plainly: Thyrosine kinase selectivity in Jurkat cells (antigenic stimulus). It is filed as cell-based.
[1] abbreviates: Rattus norvegicus, RBL-2H3 cells, [3H]-labelled serotonin, read-out: IC50 (µM) in liberation of serotonin from RBL-2H3 cells.

Where two headings read alike, the source gives them in different places.

With `Cc1c(F)cc2c(=O)c3ccccc3n(CCCN)c2c1C` [Example 1, 2-Fluoro-3,4-dimethyl-10-(3-aminopropyl)-9-acridone], the IC50 in the test on RBL-2H3 cells (setting [1]) stood at 1.7 µM.

On to “3,4-Dimethyl-10-[3-(2-imidazoylmethyl)aminopropyl]-9 acridone [Example 32]”, for which the IC50 in the test with RBL-2H3 cells (RBL-2H3 cells, [3H]-labelled serotonin, read-out: IC50 (µM) in liberation of serotonin from RBL-2H3 cells) is 0.6 µM.

Turning to `Cc1ccc2c(=O)c3ccccc3n(CCCN)c2c1C.O=C(O)C(=O)O` [Example 3, 3,4-Dimethyl-10-(3-aminopropyl)-9-acridone oxalate], the IC50 in the test with RBL-2H3 cells (Rattus norvegicus, RBL-2H3, due to the antigenic stimulus, read-out: IC50 value, liberation of arachidonic acid from the RBL-2H3 cells) stood at 12 µM; in the test with RBL-2H3 cells (Rattus norvegicus, RBL-2H3, due to the antigenic stimulus, read-out: IC50 value, liberation of histamine from the RBL-2H3 cells) it was 12 µM; in the test with RBL-2H3 cells (Rattus norvegicus, RBL-2H3, due to the antigenic stimulus, read-out: IC50 value, liberation of serotonin from the RBL-2H3 cells), 12 µM. In addition, the “formation and liberation of TNFα” value in the test on TNFα is “repressed”. In addition, in the test with phospholipase C, the “activation of phospholipase C” value is reported as “repressed”. In the test on Jurkat cells (T-cells) (Jurkat cells), the “activity to repress the antigenic stimulus in the Jurkat cells” value is on record as “absolutely no activity”. For the same compound, the “activity to repress such thyrosine kinases as p561ck and fyn” value in the test with Jurkat cells (T-cells) (concluded from the Jurkat cell test) is reported as “no activity”.

For `Cc1ccc2c(=O)c3ccccc3n(CCCN)c2c1C` [Example 2, 3,4-Dimethyl-10-(3-aminopropyl)-9-acridone], the IC50 in the test on RBL-2H3 cells (Rattus norvegicus, RBL-2H3, RBL-2H3 cells, [3H]-labelled serotonin, read-out: IC50 (µM) in liberation of serotonin from RBL-2H3 cells) was determined as 6 µM.

For the compound `Cc1ccc2c(=O)c3ccccc3n(CCCNCc3ccccc3)c2c1C` [Example 19, 3,4-Dimethyl-10-(3-benzylaminopropyl)-9-acridone], the IC50 with RBL-2H3 cells (setting [1]) came out at 3 µM.
